Measurements taken from patent publication US8563578B2, “Antitumor properties of NO modified protease inhibitors” (Onconox APS, priority 2008, dated 2013).

What was measured:
[1] = test system: transformed human (HeLa, BT20, HCC 1419, PC-3) and rodent (C6, B16) cell lines; test: Cell viability by crystal violet assay, tumor cell line panel; assay type: cell-based, rat, mouse; settings: 24 h
Source text: Rat glioma C6 and human glioblastoma U251 cell lines were a kind gift from Dr. Pedro Tranque (Universidad de Castilla-La Mancha, Albacete, Spain), murine melanoma B 16, and human adenocarcinoma HeLa, were a kind gift from Dr. Sinisa Radulovic (Institute for Oncology and Radiology of Serbia, Belgrade, Serbia) while mouse fibrosarcoma L929 was obtained from the European Collection of Animal Cell Cultures (Salisbury, UK). Human breast HCC1419 and prostate PC-3 cells were purchased from LGC Promochem srl (Venezia, Italy). Primary mouse fibroblasts and rat astrocytes were prepared as described (Mijatovic et al. 2004). Cells were grown in HEPES-buffered RPMI 1640 medium supplemented with 5% FCS, 2 mM glutamine, 0.01% sodium pyruvate, 5×10^−5 M 2-mercaptoethanol, and antibiotics (culture medium) at 37° C. in a humidified atmosphere with 5% CO2. After the conventional trypsinization procedure cells were seeded at 1×10^4/well in 96-well, 2×10^5/well in 6-well plate or 3×10^4/well in 4-well chamber slide, cultivated overnight, and then exposed to drug. […]
(§1) Reduction of 3-4,5-dimethylthiazol-2-yl)-2,5-diphenyltetrazolium bromide (MTT) to formazan depends on mitochondrial activity of cultured cells, absorption of crystal violet dye correlates with the number of adherent, live cells, while the release of cytosolic lactate dehydrogenase (LDH) indicates the disruption of membrane integrity caracteristic for necrotic cells. […] Mitohondrial-dependent production of formazan and intensity of absorbed crystal violet by adherent cells were assessed by an automated microplate reader at 570 nm, while the pyruvate-mediated conversion of 2,4-dinitrophenylhydrazine into visible hydrazone precipitate in LDH assay was measured at 492 nm. The % of cytotoxicity as indicated by LDH release was calculated as: (E−C)/(T−C)×100, where E is the experimental absorbance of cell cultures, C is the control absorbance of cell-free culture medium, and T is the absorbance corresponding to the maximal (100%) LDH release of Triton-lysed cells.
(§2) FIG. 2. […] Cell viability was then evaluated by CV test. […]

[2] = test system: rat primary astrocytes; test: Cell viability by CV test, primary astrocytes; assay type: cell-based; settings: 24 h, Sag at its IC50 dose
Source text: (§3) Rat glioma C6 and human glioblastoma U251 cell lines were a kind gift from Dr. Pedro Tranque (Universidad de Castilla-La Mancha, Albacete, Spain), murine melanoma B 16, and human adenocarcinoma HeLa, were a kind gift from Dr. Sinisa Radulovic (Institute for Oncology and Radiology of Serbia, Belgrade, Serbia) while mouse fibrosarcoma L929 was obtained from the European Collection of Animal Cell Cultures (Salisbury, UK). Human breast HCC1419 and prostate PC-3 cells were purchased from LGC Promochem srl (Venezia, Italy). Primary mouse fibroblasts and rat astrocytes were prepared as described (Mijatovic et al. 2004). […]
as §1, with “The % of cytotoxicity as indicated by LDH release was calculated as: (E−C)/(T−C)×100, where E is the experimental absorbance of cell cultures, C is the control absorbance of cell-free culture medium, and T is the absorbance corresponding to the maximal (100%) LDH release of Triton-lysed cells.” left out
as §2

[3] = test system: mouse fibroblasts; test: Cell viability by CV test, primary fibroblasts; assay type: cell-based; settings: 24 h, Sag at its IC50 dose
Source text: as §3
as §1, with “The % of cytotoxicity as indicated by LDH release was calculated as: (E−C)/(T−C)×100, where E is the experimental absorbance of cell cultures, C is the control absorbance of cell-free culture medium, and T is the absorbance corresponding to the maximal (100%) LDH release of Triton-lysed cells.” left out
as §2

[4] = test system: C6 cells; test: LDH release assay, C6; assay type: cell-based; settings: 24 h, different doses
Protocol: Reduction of 3-4,5-dimethylthiazol-2-yl)-2,5-diphenyltetrazolium bromide (MTT) to formazan depends on mitochondrial activity of cultured cells, absorption of crystal violet dye correlates with the number of adherent, live cells, while the release of cytosolic lactate dehydrogenase (LDH) indicates the disruption of membrane integrity caracteristic for necrotic cells. The cells were seeded in flat-bottom 96-well plates in a final volume of 200 μl of culture medium containing different agents, and the assays were performed after 24 h incubation exactly as previously described (Mijatovic et al. 2004, Decker et al., 1998). Mitohondrial-dependent production of formazan and intensity of absorbed crystal violet by adherent cells were assessed by an automated microplate reader at 570 nm, while the pyruvate-mediated conversion of 2,4-dinitrophenylhydrazine into visible hydrazone precipitate in LDH assay was measured at 492 nm. The % of cytotoxicity as indicated by LDH release was calculated as: (E−C)/(T−C)×100, where E is the experimental absorbance of cell cultures, C is the control absorbance of cell-free culture medium, and T is the absorbance corresponding to the maximal (100%) LDH release of Triton-lysed cells.
FIG. 4. […] Results are calculated as indicated in materials and methods and presented as mean±SD from representative of three independent experiment (*p <0.05). […]

[5] = test system: B16 cells; test: Autophagy detection by acridin orange staining, B16; assay type: cell-based, mouse; settings: 18.8 μM, 24 h
Protocol: Vital dye acridin orange (AO) was used for detection of autophagy. The intensity of red fluorescence correlates with acidity and volume of present autophagic organelles (Kanzawa et al. 2004). Assay was performed as follows: the cells were cultured in 6-well plate (2×10^5/well) 24 h in the presence of the drug, detached with trypsin and stained with 1 μg/ml AO in RPMI without phenol red for 15 min at RT. After the end of incubation period cells were washed and resuspended in PBS. Green and red fluorescence emission was measured with a FACSCalibur and analyzed using CellQuest software.
(§4) FIG. 4. […] Results are calculated as indicated in materials and methods and presented as mean±SD from representative of three independent experiment (*p <0.05). […] After 24 h of cultivation without or with drugs, cells were stained with AO orange (B) or PI (C) and analyzed by flow cytometry. The data are presented as mean±SD from three independent experiments. *p<0.05, refers to untreated cultures. […] Cells were incubated with 18.8 μM of Sag or Saq-NO2 for 24 h. After that, the drugs were either removed or not from the cells and incubated for additional 24 h. Cell viability was determined by CV test after 24 and 48 h of incubation (right panels). The data are presented as mean±SD from three independent experiments. *p<0.05, refers to untreated cultures.

[6] = test system: B16 melanoma; test: B16 melanoma growth in syngeneic C57BL/6 mice; assay type: in vivo, mouse; settings: 10 mg/kg i.p.; for animals that developed tumors at autopsy: day 30 post tumor challenge
Protocol: In order to induce primary tumor 2×10^5 B16 melanoma cells were injected subcutaneously (s.c) in the dorsal right lumbosacral region of syngeneic C57BL/6 mice. Tumor growth was observed daily, and the drug treatment started from day 10 after implantation. […] Mice were sacrificed on day 30, tumor growth was determined by three-dimensional measurements of individual tumors from each mouse. Tumor volume was calculated as: [0.52×a×b^2], where a is the longest and b is the shortest diameter as described previously (Maksimovic-Ivanic et al. 2008).
FIG. 7. […] Tumor volumes were determined 30 days after tumor implantation, as indicated in Materials and methods.

[7] = test system: B16 mouse melanoma; test: Cell viability, B16 cells; assay type: cell-based; settings: read-out: reduction of cell viability
Source text: as §3
as §1, with “The % of cytotoxicity as indicated by LDH release was calculated as: (E−C)/(T−C)×100, where E is the experimental absorbance of cell cultures, C is the control absorbance of cell-free culture medium, and T is the absorbance corresponding to the maximal (100%) LDH release of Triton-lysed cells.” left out
as §2

[8] = test system: B16 cells; test: Cell proliferation by CFSE staining, B16; assay type: cell-based, mouse; settings: 18.8 μM, 48 h, B16 cells which survived the treatment
Protocol: Rate of cell proliferation was verified by flow cytometric analysis of cells labelled with CFSE (Kang et al. 2005). CFSE dye is stable in cytoplasm more than 15 generations and the intensity of fluorescence decline after each division. Briefly, detached cells were stained with 1.5 μM CFSE for the 15 min at 37° C., washed 2 times, seeded in 6-well plates at 2×10^5 cells/well and then exposed to drugs. After 24 and 48 h of cultivation cells were trypsinized and washed 2 times. Finally, the cells were resuspended in PBS and analyzed by flow cytometry. Green fluorescence emission was measured with a FACSCalibur (BD, Heidelberg, Germany) and analyzed using CellQuest software.
as §4, with “panels). […]” for “panels). The data are presented as mean±SD from three independent experiments. *p<0.05, refers to untreated cultures.”

[9] = test system: CCR% e CXCR4 strains; test: In-vitro anti-HIV activity; assay type: cell-based
[10] = 15 consecutive days from day 10

SMILES	anti-tumor potential (viability of tumor cell lines) [1]	effect on viability of non-transformed primary astrocytes [2]	effect on viability of non-transformed primary fibroblasts [3]	LDH release (cytotoxicity, necrosis) [4]	amount of acidic vesicles in the cytoplasm (autophagy) [5]	animals without tumors with strong inflammation of peritoneum ([6]; 15 consecutive days)	loss of body weight from initial body weight ([6]; 15 consecutive days)	tumor volume ([6]; 15 consecutive days from day 10, day 30)	animals that developed tumors at autopsy [6, 10]	IC50 value relative to the parent drug ([1]; tumor cell lines)	cytotoxicity at 18.8 µM [7]	dividing potential [8]	raise of body weight, of initial body weight ([6]; 15 consecutive days)	visible signs of toxicity ([6]; 15 consecutive days)	in-vitro anti-HIV activity compared with Saquinavir [9]
CC(C)(C)NC(=O)[C@@H]1C[C@@H]2CCCC[C@@H]2CN1C[C@@H](O)[C@H](Cc1ccccc1)NC(=O)[C@H](CC(N)=O)NC(=O)c1ccc2ccccc2n1 [Saq, Saquinavir, reference compound]	strong anti-tumor potential	highly toxic	highly toxic	induced LDH release in both cell lines in a dose-dependent way	absence of autophagia	4 animals	10%	significantly reduced volume	3/9	–	–	–	–	–	–
CC(C)(C)NC(=O)[C@@H]1C[C@@H]2CCCC[C@@H]2CN1C[C@@H](O[N+](=O)[O-])[C@H](Cc1ccccc1)NC(=O)[C@H](CC(N)=O)NC(=O)c1ccc2ccccc2n1 [Saq-NO2, nitric ester of Saquinavir]	strong anti-tumor potential	did not affect the viability	did not affect the viability	significant percentage of C6 cytotoxicity was detected only upon the highest dose	absence of autophagia	–	–	–	one	two to four fold lower	~70%	decreased dividing potential	13%	no any visible signs of toxicity	at least as high as that of Saquinavir
